The supplement of paper PMC7661543
± gives the standard deviation of the averaged measurements.

Key:
Assay in all cases: relative cell number vs DMSO control (72 h) (% of DMSO); higher = less growth inhibition (more cells)
Conditions in all cases: sgRNA knockout: sgNT
[1] = tested on: BT-20
Protocol: (§1)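 QMAP-Seq: a pool of 5 breast cancer cell lines (ZR-75-1, SKBR3, HCC-38, MDA-MB-231, BT-20), each carrying 12 doxycycline-inducible Cas9 sgRNA perturbations (11 knockouts plus non-targeting sgNT), was treated with compounds for 72 h at four 10-fold doses (10 nM-10 uM or 1 nM-1 uM range). Barcodes were amplified and sequenced, and cell number was interpolated from 293T spike-in standard curves. The result is expressed as % of the median of DMSO wells. Two biological replicates.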

[2] = tested on: HCC-38
Protocol: as §1

[3] = tested on: MDA-MB-231
Protocol: as §1

[4] = tested on: SKBR3
Protocol: as §1

[5] = tested on: ZR-75-1
Protocol: as §1

| SMILES | relative cell number ([1]; 10 nM) | relative cell number ([1]; 100 nM) | relative cell number ([1]; 1000 nM) | relative cell number ([1]; 10000 nM) | relative cell number ([2]; 10 nM) | relative cell number ([2]; 100 nM) | relative cell number ([2]; 1000 nM) | relative cell number ([2]; 10000 nM) | relative cell number ([3]; 10 nM) | relative cell number ([3]; 100 nM) | relative cell number ([3]; 1000 nM) | relative cell number ([3]; 10000 nM) | relative cell number ([4]; 10 nM) | relative cell number ([4]; 100 nM) | relative cell number ([4]; 1000 nM) | relative cell number ([4]; 10000 nM) | relative cell number ([5]; 10 nM) | relative cell number ([5]; 100 nM) | relative cell number ([5]; 1000 nM) | relative cell number ([5]; 10000 nM) |
| --- | --- | --- | --- | --- | --- | --- | --- | --- | --- | --- | --- | --- | --- | --- | --- | --- | --- | --- | --- | --- |
| CC(C)(C#N)c1ccc(N2C(=O)OCc3cnc4ccc(-c5cnc6ccccc6c5)cc4c32)cc1 | 98.1 ± 10 | 102 ± 7 | 81.3 ± 1.9 | 50.8 ± 23 | 103 ± 28 | 97 ± 16 | 82.6 ± 15 | 33.2 ± 4.7 | 104 ± 25 | 94.3 ± 3.9 | 82.3 ± 23 | 49.7 ± 0.79 | 101 ± 19 | 100 ± 3 | 79.39 ± 0.72 | 49 ± 9.6 | 86.6 ± 16 | 116 ± 19 | 55.1 ± 1.7 | 38.4 ± 14 |
| CC(C)(C(=O)NCC(F)(F)C(F)(F)F)C(=O)N[C@@H]1C(=O)Nc2ccccc2-c2ccccc21 | 102 ± 5.3 | 109 ± 5.9 | 107 ± 33 | 121 ± 1.3 | 118 ± 3.9 | 99.1 ± 4.5 | 107 ± 3.9 | 109 ± 13 | 85.7 ± 7.5 | 122 ± 30 | 104 ± 16 | 97.7 ± 28 | 91 ± 1.3 | 133 ± 6.6 | 99 ± 36 | 109 ± 22 | 76.9 ± 11 | 130 ± 2.6 | 92.1 ± 1.7 | 103 ± 30 |
| CC(C)CC(=O)Nc1n[nH]c2c1CN(C(=O)C1CCN(C)CC1)C2(C)C | 114 ± 22 | 66.5 ± 1.9 | 43.3 ± 19 | 24.3 ± 1 | 112 ± 16 | 76.6 ± 10 | 42.4 ± 2 | 20.3 ± 0.83 | 112 ± 3.1 | 59.02 ± 0.15 | 18.8 ± 1.3 | 11 ± 4.8 | 108 ± 26 | 61.4 ± 27 | 30 ± 7.5 | 11.8 ± 1.6 | 70.6 ± 6.3 | 60.4 ± 13 | 31.4 ± 19 | 23.7 ± 10 |
| CC(C)OC(=O)C1=CN(C(=O)c2ccc(F)c(F)c2)CC(C)(C)c2c1[nH]c1ccccc21 | 98.9 ± 6.3 | 70 ± 5.8 | 105 ± 24 | 99.6 ± 25 | 94.8 ± 12 | 89.2 ± 8.8 | 95.2 ± 4.8 | 90.8 ± 6 | 86.2 ± 4.9 | 72.1 ± 4.9 | 83.4 ± 6.3 | 130 ± 24 | 81.3 ± 2.4 | 98.8 ± 33 | 77.9 ± 12 | 89.9 ± 24 | 119 ± 27 | 123 ± 59 | 101 ± 44 | 102 ± 58 |
| COc1cc2nc(N3CCCN(C)CC3)nc(NC3CCN(Cc4ccccc4)CC3)c2cc1OC | 82 ± 20 | 91.6 ± 8.2 | 84.4 ± 5.3 | 5.57 ± 2.9 | 111 ± 19 | 104 ± 19 | 85.8 ± 5.5 | 5.39 ± 3.1 | 123 ± 5.1 | 94.5 ± 18 | 80.2 ± 13 | 9.21 ± 8.3 | 98.3 ± 25 | 93.735 ± 0.032 | 75 ± 25 | 5.97 ± 3.4 | 102 ± 40 | 102 ± 45 | 109 ± 6.8 | 2.54 ± 0.52 |
| COc1ccc(-c2ccc3c(N4CCOCC4)nc(N4C[C@@H](C)O[C@@H](C)C4)nc3n2)cc1CO | 110 ± 9.1 | 119 ± 17 | 77.5 ± 5.5 | 57.6 ± 7.1 | 100 ± 8.5 | 115 ± 5.9 | 92.1 ± 13 | 48.9 ± 3.5 | 85.2 ± 1.6 | 166 ± 26 | 113 ± 5.1 | 57.7 ± 19 | 84.2 ± 39 | 110 ± 26 | 80.7 ± 2.5 | 51.5 ± 6.7 | 65.9 ± 21 | 116 ± 21 | 101 ± 4.9 | 36.1 ± 2.1 |
